Results from patent US12209102B2, “Heterocyclic compounds and uses thereof” (Kumquat Biosciences Inc., priority 2022, dated 2025).

Assays:
Assay type in all cases: biochemical
K-Ras G12D = molecular target: T1, K-Ras G12D (Homo sapiens, UniProt P01116, G12D); test: HTRF resonance energy transfer assay, K-Ras G12D / SOS1 interaction; details: HTRF assay of Example 5; read-out: IC50 against K-Ras G12D
T1 construct: made in house; host or cells: E. coli BL21 (DE3)
Text: (§1) This assay can be also used to assess a selective inhibition or reduction of signaling output of a mutant Ras protein relative to a wildtype, or relative to a different mutant Ras protein. For example, the equilibrium interaction of wildtype Kras or K-Ras mutant (e.g., wildtype or a mutant thereof) with SOS1 (e.g., hSOS1) can be assessed as a proxy or an indication for a subject compound's ability to bind and inhibit Ras protein. HTRF assay detects from (i) a fluorescence resonance energy transfer (FRET) donor (e.g., antiGST-Europium) that is bound to GST-tagged K-Ras mutant to (ii) a FRET acceptor (e.g., anti-6His-XL665) bound to a His-tagged hSOS1.
(§2) The assay buffer can contain˜5 mM HEPES pH 7.4, ˜150 mM NaCl, ˜ 1 mM DTT, 0.05% BSA and 0.0025%(v/v) Igepal. A Ras working solution is prepared in an assay buffer containing typically a suitable amount of the protein construct (e.g., GST-tagged K-Ras mutant) and the FRET donor (e.g., antiGST-Eu(K) from Cisbio, France). A SOS1 working solution is prepared in an assay buffer containing suitable amount of the protein construct (e.g., His-hSOS1) and the FRET acceptor (e.g., anti-6His-XL665 from Cisbio, France). A suitable amount of the protein construct will depend on the range of activity or range of IC50 values being detected or under investigation. For detecting IC50 within a range of 500 nM, the protein constructs of the same range of molarity can be utilized.
(§3) A fixed volume of DMSO with or without test compound is transferred into a 384-well plate. Ras working solution is added to all wells of the test plate. SOS1 working solution is added to all wells except for those that are subsequently filled the inhibitor control solution. Upon incubation for about 10 minutes or longer, the fluorescence is measured with a M1000Pro plate reader (Tecan) using HTRF detection (excitation 337 nm, emission 1: 620 nm, emission 2: 665 nm). Compounds are tested in duplicates at different concentrations (for example, 10 μM, 2.5 μM, 0.63 μM, 0.16 μM, 0.04 μM, 0.01 μM test compound). The ratiometric data (i.e., emission 2 divided by emission 1) is used to calculate IC50 values against Ras using GraphPad Prism (GraphPad software). Following this general procedure, samples were tested with or without a subject compound disclosed herein including compounds exemplified in Table 1 to assess their abilities to inhibit a K-Ras mutant relative to another mutant or WT. Signaling output measured in terms of IC50 values can be obtained, a ratio of IC50 against one mutant relative to another mutant can be calculated. For instance, a selective reduction of K-Ras G12D signaling output can be evidenced by a ratio greater than one. In particular, a selective reduction of K-Ras G12D signaling relative to K-Ras WT signaling is evidenced as the ratio of IC50 (against K-Ras WT) to IC50 (against K-Ras G12D) is greater than 1.

K-Ras G12S = molecular target: T2, K-Ras G12S (Homo sapiens, UniProt P01116, G12S); test: HTRF resonance energy transfer assay, K-Ras G12S / SOS1 interaction; details: HTRF assay of Example 5; read-out: IC50 against K-Ras G12S
T2 construct: made in house; host or cells: E. coli BL21 (DE3)
Text: as §1, §2, §3

K-Ras G12V = molecular target: T3, K-Ras G12V (Homo sapiens, UniProt P01116, G12V); test: HTRF resonance energy transfer assay, K-Ras G12V / SOS1 interaction; details: HTRF assay of Example 5; read-out: IC50 against K-Ras G12V
T3 construct: made in house; host or cells: E. coli BL21 (DE3)
Text: as §1, §2, §3

K-Ras WT = molecular target: T4, K-Ras WT (Homo sapiens, UniProt P01116); test: HTRF resonance energy transfer assay, K-Ras WT / SOS1 interaction; details: HTRF assay of Example 5; read-out: IC50 against K-Ras WT
T4 construct: made in house; host or cells: E. coli BL21 (DE3)
Text: as §1, §2, §3

T1 sequence (P01116 1-188 isoform P01116-2 G12D): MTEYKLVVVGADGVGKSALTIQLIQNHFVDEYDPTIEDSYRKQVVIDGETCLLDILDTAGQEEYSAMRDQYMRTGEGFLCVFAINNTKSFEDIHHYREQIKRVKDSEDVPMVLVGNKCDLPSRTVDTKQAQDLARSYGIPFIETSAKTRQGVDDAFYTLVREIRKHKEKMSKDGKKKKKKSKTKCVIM
T3 sequence (P01116 1-188 isoform P01116-2 G12V): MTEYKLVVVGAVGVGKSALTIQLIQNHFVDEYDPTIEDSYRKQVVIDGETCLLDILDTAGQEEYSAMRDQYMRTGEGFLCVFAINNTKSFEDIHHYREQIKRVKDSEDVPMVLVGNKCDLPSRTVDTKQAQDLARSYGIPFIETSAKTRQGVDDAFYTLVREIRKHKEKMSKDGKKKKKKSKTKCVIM
T2 sequence (P01116 1-188 isoform P01116-2 G12S): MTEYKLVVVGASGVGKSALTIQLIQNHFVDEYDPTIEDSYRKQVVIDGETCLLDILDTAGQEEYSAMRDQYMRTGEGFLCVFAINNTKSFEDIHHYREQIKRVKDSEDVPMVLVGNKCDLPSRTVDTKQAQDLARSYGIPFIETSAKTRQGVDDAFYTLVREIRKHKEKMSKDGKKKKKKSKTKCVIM
T4 sequence (P01116 1-188 isoform P01116-2): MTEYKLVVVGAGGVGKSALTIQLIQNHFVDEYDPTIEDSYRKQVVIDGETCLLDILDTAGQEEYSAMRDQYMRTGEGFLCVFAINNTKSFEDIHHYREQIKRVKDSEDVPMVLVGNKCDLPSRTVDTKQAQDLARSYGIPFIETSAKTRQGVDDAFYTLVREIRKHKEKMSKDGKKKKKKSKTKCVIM

| IC50 (K-Ras G12D) [nM] | IC50 (K-Ras G12S) [nM] | IC50 (K-Ras G12V) [nM] | IC50 (K-Ras WT) [nM] | SMILES |
| --- | --- | --- | --- | --- |
| < 100 | < 100 | < 100 | < 100 | N#Cc1c(N)sc2c(F)ccc(-c3c(Cl)c4c5c(nc(OC[C@@]67CCCN6C[C@H](F)C7)nc5c3F)N(C3CCCNC3)CCO4)c12 (stereo partly drawn) [Compound 787, 2-amino-4-(8-chloro-10-fluoro-2-(((2R,7aS)-2-fluorotetrahydro-1H-pyrrolizin-7a(5H)-yl)methoxy)-4-(piperidin-3-yl)-5,6-dihydro-4H-[1,4]oxazepino[5,6,7-de]quinazolin-9-yl)-7-fluorobenzo[b]thiophene-3-carbonitrile] |
| < 100 |  |  |  | C[C@H]1COc2c(Cl)c(-c3ccc(F)c4sc(N)c(C#N)c34)c(F)c3nc(OC[C@@]45CCCN4C[C@H](F)C5)nc(c23)N1CC(F)F [Compound 783, 2-amino-4-((5S)-8-chloro-4-(2,2-difluoroethyl)-10-fluoro-2-(((2R,7aS)-2-fluorotetrahydro-1H-pyrrolizin-7a(5H)-yl)methoxy)-5-methyl-5,6-dihydro-4H-[1,4]oxazepino[5,6,7-de]quinazolin-9-yl)-7-fluorobenzo[b]thiophene-3-carbonitrile] |
| < 100 | < 100 |  | < 100 | C[C@H]1CN(C2CCN(C(=O)C(F)F)CC2)c2nc(OC[C@@]34CCCN3C[C@H](F)C4)nc3c(F)c(-c4ccc(F)c5sc(N)c(C#N)c45)c(Cl)c(c23)O1 [Compound 822, 2-amino-4-((6S)-8-chloro-4-(1-(2,2-difluoroacetyl)piperidin-4-yl)-10-fluoro-2-(((2R,7aS)-2-fluorotetrahydro-1H-pyrrolizin-7a(5H)-yl)methoxy)-6-methyl-5,6-dihydro-4H-[1,4]oxazepino[5,6,7-de]quinazolin-9-yl)-7-fluorobenzo[b]thiophene-3-carbonitrile] |
| < 100 | < 100 |  | < 100 | N#Cc1c(N)sc2c(F)ccc(-c3c(Cl)c4c5c(nc(OC[C@@]67CCCN6C[C@H](F)C7)nc5c3F)N(CC(F)F)C(C3CCNC3)CO4)c12 (stereo partly drawn) [Compound 1034, 2-amino-4-(8-chloro-4-(2,2-difluoroethyl)-10-fluoro-2-(((2R,7aS)-2-fluorotetrahydro-1H-pyrrolizin-7a(5H)-yl)methoxy)-5-(pyrrolidin-3-yl)-5,6-dihydro-4H-[1,4]oxazepino[5,6,7-de]quinazolin-9-yl)-7-fluorobenzo[b]thiophene-3-carbonitrile] |
|  | < 100 | < 100 | < 100 | N#Cc1c(N)sc2c(F)ccc(-c3c(Cl)c4c5c(nc(OC[C@@]67CCCN6C[C@H](F)C7)nc5c3F)N(C3CCOC3)[C@@H](C3(C#N)CC3)CO4)c12 (stereo partly drawn) [Compound 1130, 2-amino-4-((5S)-8-chloro-5-(1-cyanocyclopropyl)-10-fluoro-2-(((2R,7aS)-2-fluorotetrahydro-1H-pyrrolizin-7a(5H)-yl)methoxy)-4-(tetrahydrofuran-3-yl)-5,6-dihydro-4H-[1,4]oxazepino[5,6,7-de]quinazolin-9-yl)-7-fluorobenzo[b]thiophene-3-carbonitrile] |
| < 100 |  |  | < 100 | N#Cc1c(N)sc2c(F)ccc(-c3c(Cl)c4c5c(nc(OC[C@@]67CCCN6C[C@H](F)C7)nc5c3F)N(C3CCOC3)[C@@H](C(F)F)CO4)c12 (stereo partly drawn) [Compound 620, 2-amino-4-((5R)-8-chloro-5-(difluoromethyl)-10-fluoro-2-(((2R,7aS)-2-fluorotetrahydro-1H-pyrrolizin-7a(5H)-yl)methoxy)-4-(tetrahydrofuran-3-yl)-5,6-dihydro-4H-[1,4]oxazepino[5,6,7-de]quinazolin-9-yl)-7-fluorobenzo[b]thiophene-3-carbonitrile] |
| < 100 | < 100 |  | < 100 | CS(=O)(=O)NCC1COc2c(Cl)c(-c3ccc(F)c4sc(N)c(C#N)c34)c(F)c3nc(OC[C@@]45CCCN4C[C@H](F)C5)nc(c23)N1CC(F)F (stereo partly drawn) [Compound 867, N-((9-(2-amino-3-cyano-7-fluorobenzo[b]thiophen-4-yl)-8-chloro-4-(2,2-difluoroethyl)-10-fluoro-2-(((2R,7aS)-2-fluorotetrahydro-1H-pyrrolizin-7a(5H)-yl)methoxy)-5,6-dihydro-4H-[1,4]oxazepino[5,6,7-de]quinazolin-5-yl)methyl)methanesulfonamide] |
| < 100 | < 100 |  | < 100 | N#Cc1c(N)sc2c(F)ccc(-c3c(Cl)c4c5c(nc(OC[C@@]67CCCN6C[C@H](F)C7)nc5c3F)N(CC3(C(F)(F)F)CC3)CCO4)c12 [Compound 953, 2-amino-4-(8-chloro-10-fluoro-2-(((2R,7aS)-2-fluorotetrahydro-1H-pyrrolizin-7a(5H)-yl)methoxy)-4-((1-(trifluoromethyl)cyclopropyl)methyl)-5,6-dihydro-4H-[1,4]oxazepino[5,6,7-de]quinazolin-9-yl)-7-fluorobenzo[b]thiophene-3-carbonitrile] |
| < 100 |  |  | < 100 | C[C@H]1CN(CC2(N(C)C)CCC2)c2nc(OC[C@@]34CCCN3C[C@H](F)C4)nc3c(F)c(-c4ccc(F)c5sc(N)c(C#N)c45)c(Cl)c(c23)O1 [Compound 910, 2-amino-4-((6S)-8-chloro-4-((1-(dimethylamino)cyclobutyl)methyl)-10-fluoro-2-(((2R,7aS)-2-fluorotetrahydro-1H-pyrrolizin-7a(5H)-yl)methoxy)-6-methyl-5,6-dihydro-4H-[1,4]oxazepino[5,6,7-de]quinazolin-9-yl)-7-fluorobenzo[b]thiophene-3-carbonitrile] |
| < 100 |  | < 100 | < 100 | N#Cc1c(N)sc2c(F)ccc(-c3c(Cl)c4c5c(nc(OC[C@@]67CCCN6C[C@H](F)C7)nc5c3F)N(CC(F)F)[C@@H](C3CCC3)CO4)c12 [Compound 692, 2-amino-4-((S)-8-chloro-5-cyclobutyl-4-(2,2-difluoroethyl)-10-fluoro-2-(((2R,7aS)-2-fluorotetrahydro-1H-pyrrolizin-7a(5H)-yl)methoxy)-5,6-dihydro-4H-[1,4]oxazepino[5,6,7-de]quinazolin-9-yl)-7-fluorobenzo[b]thiophene-3-carbonitrile] |
|  | < 100 | < 100 | < 100 | N#Cc1c(N)sc2c(F)ccc(-c3c(Cl)c4c5c(nc(OC[C@@]67CCCN6C[C@H](F)C7)nc5c3F)N(CC(F)F)C(c3cnco3)CO4)c12 (single isomer, unassigned) [Compound 860] |
|  | < 100 | < 100 | < 100 | N#Cc1c(N)sc2c(F)ccc(-c3c(Cl)c4c5c(nc(OC[C@@]67CCCN6C[C@H](F)C7)nc5c3F)N(CC(F)F)[C@@H](CNC(=O)CC3COC3)CO4)c12 [Compound 766, N-(((5S)-9-(2-amino-3-cyano-7-fluorobenzo[b]thiophen-4-yl)-8-chloro-4-(2,2-difluoroethyl)-10-fluoro-2-(((2R,7aS)-2-fluorotetrahydro-1H-pyrrolizin-7a(5H)-yl)methoxy)-5,6-dihydro-4H-[1,4]oxazepino[5,6,7-de]quinazolin-5-yl)methyl)-2-(oxetan-3-yl)acetamide] |
|  | < 100 | < 100 | < 100 | N#Cc1c(N)sc2c(F)ccc(-c3c(Cl)c4c5c(nc(OC[C@@]67CCCN6C[C@H](F)C7)nc5c3F)N(CC(F)F)[C@H](C(F)F)CO4)c12 [Compound 1099, 2-amino-4-((S)-8-chloro-4-(2,2-difluoroethyl)-5-(difluoromethyl)-10-fluoro-2-(((2R,7aS)-2-fluorotetrahydro-1H-pyrrolizin-7a(5H)-yl)methoxy)-5,6-dihydro-4H-[1,4]oxazepino[5,6,7-de]quinazolin-9-yl)-7-fluorobenzo[b]thiophene-3-carbonitrile] |
